Results on twelve compounds are retold here after patent publication US20150225377A1, “VEGFR3 INHIBITORS” (CANCER THERAPEUTICS CRC PTY LIMITED, priority 2012, published 2015).

The target of this test is T1, P397Y-FAK (Homo sapiens, UniProt Q05397).
T1 construct: endogenous in cells; host or cells: MDA-231-LNA
Nature of the test: P397Y-FAK inhibition MSD platform cellular biomarker assay. The format is cell-based. Particulars: MDA-231-LNA cells, 1 hour compound. The procedure: 96-well plates (cat#MA6000, Meso Scale Discovery) are coated with 30 μL/well of mouse monoclonal FAK antibody [63D5] (cat#ab72140, Abcam) pre-diluted in PBS to a concentration of 1 mg/mL. The plates are sealed with adhesive film and incubated for 16 hours at 4° C. The antibody is then flicked out of the plates and 150 μL of 3% [w/v] Blocker A (cat#R93AA-1, Meso Scale Discovery) is added. The plates are resealed with adhesive film and incubated at room temperature on a shaker set at medium speed for 2 hours. The plates are then washed three times with a solution containing 50 mM Tris-HCl pH 7.5, 0.15 M NaCl and 0.02% Tween-20, before cell lysate addition described below.
Cells are split 1:2 into T150 cell culture flasks 2 days prior to compound treatment. On the day prior to compound treatment, 200 μL media containing 20,000 cells is seeded into all wells of white, clear-bottom, TC treated, pclear, 96-well microtitre plates (cat#655098, Greiner Bio-One), and the plates are incubated at 37° C. and 5% CO2 for […]. 1 pUwell of compound is then added from dilution series prepared in DMSO. Negative control wells receive the same volume of DMSO without compounds, and positive control wells receive 2 μM of a control compound in the same volume of DMSO. Cells are treated for 1 hour at 37° C. and 5% CO2. The media/compounds are then flicked off and 55 pUwell of ice-cold complete lysis buffer is added. Complete lysis buffer is prepared by adding 1 tablet PhosSTOP complete phosphatase inhibitor (cat#04906837001, Roche) and 1 tablet Complete, Mini, EDTA-free, protease inhibitor (cat#04693159001, Roche) per 10 mL of incomplete lysis buffer (150 mM NaCl, 20 mM Tris-HCl pH 7.5, 1 mM EDTA, 1 mM EGTA, 1% Triton-X 100). Plates are incubated on ice for 30 minutes, with 30 seconds high speed plate shaking every 5 minutes. 40 μL/well of cell lysate is transferred to the coated, blocked and washed 96-well microtitre plates described above. The 96-well plates are sealed with adhesive film and incubated for 16 hours at 4° C. The plates are then washed three times with a solution containing 50 mM Tris-HCl pH 7.5, 0.15 M NaCl and 0.02% Tween-20 and tapped dry. 25 μL/well of detection solution (1% [w/v] Blocker A (cat#R93AA-1, Meso Scale Discovery) in 50 mM Tris-HCl pH 7.5, 0.15 M NaCl and 0.02% Tween-20, with 1:600 rabbit polyclonal FAK phospho Y397 antibody (cat#ab39967, Abcam), 1:1000 anti-rabbit sulfo-tag antibody (cat#R32AB-1 Meso Scale Discovery) and 1:40 reconstituted Blocker D-M (cat#D609-0100, Rockland Immunochemicals for Research)) is added, and the plates resealed with adhesive film and incubated for 1 hour at room temperature on a plate shaker set to medium speed. Plates are then washed three times with a solution containing 50 mM Tris-HCl pH 7.5, 0.15 M NaCl and 0.02% Tween-20 and tapped dry. 150 μL/well of Read Buffer T+Surfactant (cat#R92TC-1, Meso Scale Discovery) is then added, and pFAK-397 levels quantified using a Meso Scale Discovery SECTOR Imager 6000 instrument.

T1 sequence (Q05397 2-1052 limits assumed, stated change not applied): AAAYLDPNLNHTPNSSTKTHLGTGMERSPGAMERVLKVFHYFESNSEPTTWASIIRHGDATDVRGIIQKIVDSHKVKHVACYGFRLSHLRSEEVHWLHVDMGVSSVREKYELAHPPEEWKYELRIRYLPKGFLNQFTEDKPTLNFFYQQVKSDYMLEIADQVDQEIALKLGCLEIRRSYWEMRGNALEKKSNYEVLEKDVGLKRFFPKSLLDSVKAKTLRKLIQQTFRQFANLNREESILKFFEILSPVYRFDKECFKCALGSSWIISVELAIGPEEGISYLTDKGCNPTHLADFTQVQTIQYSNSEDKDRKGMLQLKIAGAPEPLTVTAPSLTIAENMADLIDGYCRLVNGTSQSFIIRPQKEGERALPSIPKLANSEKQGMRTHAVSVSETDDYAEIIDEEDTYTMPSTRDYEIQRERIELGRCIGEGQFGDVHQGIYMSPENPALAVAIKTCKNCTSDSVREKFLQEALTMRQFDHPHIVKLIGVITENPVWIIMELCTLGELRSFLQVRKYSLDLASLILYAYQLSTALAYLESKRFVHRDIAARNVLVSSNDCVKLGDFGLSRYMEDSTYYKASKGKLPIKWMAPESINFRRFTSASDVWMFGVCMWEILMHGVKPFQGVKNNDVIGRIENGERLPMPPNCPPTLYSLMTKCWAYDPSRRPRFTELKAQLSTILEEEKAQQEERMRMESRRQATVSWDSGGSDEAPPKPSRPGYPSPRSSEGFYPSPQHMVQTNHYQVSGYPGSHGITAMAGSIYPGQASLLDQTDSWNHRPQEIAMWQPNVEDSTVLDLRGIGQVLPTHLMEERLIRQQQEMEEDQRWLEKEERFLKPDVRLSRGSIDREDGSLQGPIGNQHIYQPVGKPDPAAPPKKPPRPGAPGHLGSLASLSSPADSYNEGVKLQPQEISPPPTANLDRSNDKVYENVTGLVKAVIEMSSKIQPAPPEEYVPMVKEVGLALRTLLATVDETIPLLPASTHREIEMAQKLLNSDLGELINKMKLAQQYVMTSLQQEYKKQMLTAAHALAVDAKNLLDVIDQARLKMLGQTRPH

Compound `NCc1ccc(Nc2ncc(C(F)(F)F)c(CCc3ccccc3CC(N)=O)n2)cc1` [Compound 3, 2-(2-(2-(2-((4-(Aminomethyl)phenyl)amino)-5-(trifluoromethyl)pyrimidin-4-yl)ethyl)phenyl)acetamide] yielded an IC50 of 62 nM.
Consider `Cc1cnc(Nc2ccc(C3CCN(C)CC3)nc2)nc1CCc1ccccc1CC(N)=O` [Compound 5, 2-(2-(2-(5-methyl-2-((6-(1-methylpiperidin-4-yl)pyridin-3-yl)amino)pyrimidin-4-yl)ethyl)phenyl)acetamide], for which the IC50 is over 2000 nM.
The compound `NC(=O)Cc1ccccc1CCc1nc(Nc2ccc(C(=O)N3CCNCC3)cc2)ncc1C(F)(F)F` [Compound 6, 2-(2-(2-(2-((4-(piperazine-1-carbonyl)phenyl)amino)-5-(trifluoromethyl)pyrimidin-4-yl)ethyl)phenyl)acetamide] displayed an IC50 of 940 nM.
As for `Cc1cc(Nc2ncc(C(F)(F)F)c(CCc3ccccc3CC(N)=O)n2)ccc1C1CCNCC1` [Compound 11, 2-(2-(2-(2-((3-methyl-4-(piperidin-4-yl)phenyl)amino)-5-(trifluoromethyl)pyrimidin-4-yl)ethyl)phenyl)acetamide], the figure is 16 nM.
`Cc1cc(Nc2ncc(C(F)(F)F)c(CCc3ccccc3CC(N)=O)n2)ccc1C1CCN(C)CC1` [Compound 12, 2-(2-(2-(2-((3-methyl-4-(1-methylpiperidin-4-yl)phenyl)amino)-5-(trifluoromethyl)pyrimidin-4-yl)ethyl)phenyl)acetamide] returned a concentration for half-maximal inhibition (IC50) of 30 nM.
The value for `Cc1cnc(Nc2ccc(C3CCNCC3)cc2)nc1CCc1ccccc1CC(N)=O` [Compound 16, 2-(2-(2-(5-methyl-2-((4-(piperidin-4-yl)phenyl)amino)pyrimidin-4-yl)ethyl)phenyl)acetamide] was over 2000 nM; that for `CC(N)c1ccc(Nc2ncc(C(F)(F)F)c(CCc3ccccc3CC(N)=O)n2)cc1` (stereo not drawn) [Compound 18, 2-(2-(2-(2-(4-(1-aminoethyl)phenylamino)-5-(trifluoromethyl)pyrimidin-4-yl)ethyl)phenyl)acetamide] was 25 nM.
The value for `Cc1cnc(Nc2cccnc2)nc1CCc1ccccc1CC(N)=O` [Compound 24, 2-(2-(2-(5-methyl-2-(pyridin-3-ylamino)pyrimidin-4-yl)ethyl)phenyl)acetamide] was over 2000 nM.
The value for `Cc1cnc(Nc2ccc(OC3CCNCC3)cc2)nc1CCc1ccccc1CC(N)=O` [Compound 26, 2-(2-(2-(5-methyl-2-((4-(piperidin-4-yloxy)phenyl)amino)pyrimidin-4-yl)ethyl)phenyl)acetamide] was over 2000 nM; that for `Cc1cnc(Nc2cnn(C)c2)nc1CCc1ccccc1CC(N)=O` [Compound 28, 2-(2-(2-(5-methyl-2-((1-methyl-^1H-pyrazol-4-yl)amino)pyrimidin-4-yl)ethyl)phenyl)acetamide] was over 2000 nM.
The compound `Cc1cnc(Nc2ccc(C3(N)COC3)cc2)nc1CCc1ccccc1CC(N)=O` [Compound 31, 2-(2-(2-(2-(4-(3-aminooxetan-3-yl)phenylamino)-5-methylpyrimidin-4-yl)ethyl)phenyl)acetamide] gave an IC50 of over 2000 nM.
`Cc1cnc(Nc2cnn(C3CCNCC3)c2)nc1CCc1ccccc1CC(N)=O` [Compound 33, 2-(2-(2-(5-Methyl-2-((1-(piperidin-4-yl)-^1H-pyrazol-4-yl)amino)pyrimidin-4-yl)ethyl)phenyl)acetamide] gave an IC50 of over 2000 nM.

The term IC50 denotes the concentration that gives 50% inhibition. The low end stands for greater potency, the high end for weaker potency.
